Assay results: US4362743A, “Antibacterial monic acid esters” (Beecham Group Limited, priority 1980, dated 1982)
≈ marks a conversion by molar mass, not a printed value.

Key:
Assay type in all cases: cell-based
M. pneumoniae ATCC 15492 = assay: Anti-mycoplasmal activity in vitro MIC; settings: Mycoplasmoides pneumoniae, ATCC15492, 144 h
[1] = system: M. bovigenitalium ATCC 14173; assay: Anti-mycoplasmal activity in vitro MIC; settings: 144 h; M. bovigenitalium ATCC 14173; Friis broth, 0.9% agarose, 6 days 37° C.; read-out: M.I.C.
M. suipneumoniae Str. 11 = assay: Anti-mycoplasmal activity in vitro MIC; settings: Mesomycoplasma hyopneumoniae, STR.11, 144 h
M. suipneumoniae UCD 1 = assay: Anti-mycoplasmal activity in vitro MIC; settings: Mesomycoplasma hyopneumoniae, UCD1, 144 h; M. suipneumoniae UCD 1; Friis broth, 0.9% agarose, 6 days 37° C.; read-out: M.I.C.
M. dispar NCTC 10125 = assay: Anti-mycoplasmal activity in vitro MIC; settings: 144 h
M. hyorhinis ATCC 23234 = assay: Anti-mycoplasmal activity in vitro MIC; settings: Mesomycoplasma hyorhinis, ATCC23234, 144 h
M. suipneumoniae MS16 = assay: Anti-mycoplasmal activity in vitro MIC; settings: Mesomycoplasma hyopneumoniae, MS16, 144 h
M. bovis NCTC 10131 = assay: microbe, parasite or virus in culture; settings: NCTC10131, 144 h
[2] = system: M. suipneumoniae PW/C/210; assay: Anti-mycoplasmal activity in vitro MIC; settings: Mesomycoplasma hyopneumoniae, 144 h
M. suipneumoniae JF 435 = assay: Anti-mycoplasmal activity in vitro MIC; settings: Mesomycoplasma hyopneumoniae, JF435, 144 h; M. suipneumoniae JF 435; Friis broth, 0.9% agarose, 6 days 37° C.; read-out: M.I.C.
[3] = system: M. suipneumoniae J2206/183b; assay: Anti-mycoplasmal activity in vitro MIC; settings: Mesomycoplasma hyopneumoniae, 144 h; M. suipneumoniae J2206/183b; Friis broth, 0.9% agarose, 6 days 37° C.; read-out: M.I.C.
M. suipneumoniae NB12 = assay: Anti-mycoplasmal activity in vitro MIC; settings: Mesomycoplasma hyopneumoniae, NB12, 144 h
[4] = system: M. suipneumoniae NCTC 10110; assay: Anti-mycoplasmal activity in vitro MIC; settings: Mesomycoplasma hyopneumoniae, NCTC10110, 144 h; M. suipneumoniae NCTC 10110; Friis broth, 0.9% agarose, 6 days 37° C.; read-out: M.I.C.
M. hyorhinis ATCC 25021 = assay: Anti-mycoplasmal activity in vitro MIC; settings: Mesomycoplasma hyorhinis, ATCC25021, 144 h
M. gallisepticum S6 = assay: Anti-mycoplasmal activity in vitro MIC; settings: Mycoplasmoides gallisepticum, 144 h; M. gallisepticum S6; Friis broth, 0.9% agarose, 6 days 37° C.; read-out: M.I.C.
M. suipneumoniae TAM 6N = assay: Anti-mycoplasmal activity in vitro MIC; settings: Mesomycoplasma hyopneumoniae, TAM6N, 144 h; M. suipneumoniae TAM 6N; Friis broth, 0.9% agarose, 6 days 37° C.; read-out: M.I.C.
[5] = system: M. suipneumoniae ATCC 25095; assay: Anti-mycoplasmal activity in vitro MIC; settings: Mesomycoplasma hyopneumoniae, ATCC25095, 144 h
M. suipneumoniae LABER = assay: Anti-mycoplasmal activity in vitro MIC; settings: Mesomycoplasma hyopneumoniae, 144 h
[6] = system: M. hyosynoviae ATCC 25591; assay: Anti-mycoplasmal activity in vitro MIC; settings: 144 h
M. suipneumoniae HK (2) = assay: Anti-mycoplasmal activity in vitro MIC; settings: Mesomycoplasma hyopneumoniae, 144 h; M. suipneumoniae HK (2); Friis broth, 0.9% agarose, 6 days 37° C.; read-out: M.I.C.

C/C(=C\C(=O)OCc1cccc(C=NO)c1)C[C@@H]1OC[C@H](C[C@@H]2O[C@H]2[C@@H](C)[C@H](C)O)[C@@H](O)[C@H]1O [Example 8, m-Hydroxyiminomethylbenzyl monate A]
MIC (M. pneumoniae ATCC 15492): 2.5 µg/mL (≈ 5.24 µM) | MIC [1]: 0.025 µg/mL (≈ 0.0524 µM) | MIC (M. suipneumoniae Str. 11): 0.25 µg/mL (≈ 0.524 µM) | MIC (M. suipneumoniae UCD 1): 0.5 µg/mL (≈ 1.05 µM) | MIC (M. dispar NCTC 10125): 0.1 µg/mL (≈ 0.209 µM) | MIC (M. hyorhinis ATCC 23234): 0.25 µg/mL (≈ 0.524 µM) | MIC (M. suipneumoniae MS16): 0.25 µg/mL (≈ 0.524 µM) | MIC (M. bovis NCTC 10131): ≤ 0.01 µg/mL | MIC [2]: 0.25 µg/mL (≈ 0.524 µM) | MIC (M. suipneumoniae JF 435): 0.5 µg/mL (≈ 1.05 µM) | MIC [3]: 0.5 µg/mL (≈ 1.05 µM) | MIC (M. suipneumoniae NB12): 0.25 µg/mL (≈ 0.524 µM) | MIC [4]: 0.5 µg/mL (≈ 1.05 µM) | MIC (M. hyorhinis ATCC 25021): 0.25 µg/mL (≈ 0.524 µM) | MIC (M. gallisepticum S6): 5 µg/mL (≈ 10.5 µM) | MIC (M. suipneumoniae TAM 6N): 0.5 µg/mL (≈ 1.05 µM) | MIC [5]: 0.25 µg/mL (≈ 0.524 µM) | MIC (M. suipneumoniae LABER): 0.25 µg/mL (≈ 0.524 µM) | MIC [6]: 0.25 µg/mL (≈ 0.524 µM) | MIC (M. suipneumoniae HK (2)): 0.5 µg/mL (≈ 1.05 µM)
